Assay: xn = mol fraction of the nth substance listed
Details: 100 kPa

C[N+](C)(C)Cc1ccccc1.[Cl-] + O
viscosity [mPa·s]
Details | 298.15 K | 303.15 K | 308.15 K | 313.15 K | 318.15 K
x1 = 0.0001 | 0.895 | 0.806 | 0.723 | 0.627 | 0.541
x1 = 0.0003 | 0.897 | 0.808 | 0.726 | 0.623 | 0.537
x1 = 0.0005 | 0.901 | – | 0.73 | 0.638 | 0.552
